ChEMBL document CHEMBL4261624, “Resveratrol-maltol hybrids as multi-target-directed agents for Alzheimer's disease” (Bioorg Med Chem, 2018)
pIC50: −log10 of the molar value. Calls of active or inactive are those of the source. The rule behind the calls is not given here.

Key:
[1] = biological target: T1, Amyloid-beta precursor protein (Homo sapiens, UniProt P05067); assay: Inhibition of HFIP-pretreated amyloid beta (1 to 42) (unknown origin) self-induced aggregation after 24 hrs by thioflavin-T fluorescence assay
[2] = biological target: T1, Amyloid-beta precursor protein; assay: Inhibition of HFIP-pretreated amyloid beta (1 to 42) (unknown origin) self-induced aggregation at 20 uM after 24 hrs by thioflavin-T fluorescence assay relative to control
[3] = Antioxidant activity assessed as ABTS radical scavenging activity incubated for 10 mins in dark; format: functional
[4] = Metal chelating activity assessed as inhibition of Cu2+-induced amyloid beta (1 to 42 residues) fibrils at 50 uM after 24 hrs by uranyl acetate staining based transmission electron microscopic analysis
[5] = Metal chelating activity assessed as inhibition of Fe3+-induced amyloid beta (1 to 42 residues) fibrils at 50 uM after 24 hrs by uranyl acetate staining based transmission electron microscopic analysis
[6] = Metal chelating activity assessed as inhibition of Cu2+-induced amyloid beta (1 to 42 residues) fibrils after 24 hrs by thioflavin-T fluorescence assay
[7] = Metal chelating activity assessed as inhibition of Fe3+-induced amyloid beta (1 to 42 residues) fibrils by measuring fluorescence level after 24 hrs by thioflavin-T fluorescence assay; set-up: scale not given: the % may be the effect or the level left
[8] = Metal chelating activity assessed as inhibition of Fe2+-induced amyloid beta (1 to 42 residues) fibrils after 24 hrs by thioflavin-T fluorescence assay
[9] = biological target: T1, Amyloid-beta precursor protein; assay: Disaggregation of self-induced amyloid beta (1 to 42) (unknown origin) preformed fibrils at 50 uM after 24 hrs by uranyl acetate staining based transmission electron microscopic analysis
[10] = biological target: T1, Amyloid-beta precursor protein; assay: Disaggregation of Fe3+-induced amyloid beta (1 to 42) (unknown origin) preformed fibrils at 75 uM after 24 hrs by uranyl acetate staining based transmission electron microscopic analysis
[11] = biological target: T1, Amyloid-beta precursor protein; assay: Disaggregation of Cu2+-induced amyloid beta (1 to 42) (unknown origin) preformed fibrils at 50 uM after 24 hrs by uranyl acetate staining based transmission electron microscopic analysis
[12] = biological target: T1, Amyloid-beta precursor protein; assay: Disaggregation of Fe3+-induced amyloid beta (1 to 42) (unknown origin) preformed fibrils assessed as remaining amyloid beta aggregation level at […] after 24 hrs by thioflavin-T fluorescence assay
[13] = biological target: T1, Amyloid-beta precursor protein; assay: Disaggregation of Cu2+-induced amyloid beta (1 to 42) (unknown origin) preformed fibrils assessed as remaining amyloid beta aggregation level at […] after 24 hrs by thioflavin-T fluorescence assay
[14] = Metal chelating activity assessed as compound-nitriloacetate Fe3+ complex formation by UV-spectrophotometric analysis

T1 sequence (P05067 whole entry): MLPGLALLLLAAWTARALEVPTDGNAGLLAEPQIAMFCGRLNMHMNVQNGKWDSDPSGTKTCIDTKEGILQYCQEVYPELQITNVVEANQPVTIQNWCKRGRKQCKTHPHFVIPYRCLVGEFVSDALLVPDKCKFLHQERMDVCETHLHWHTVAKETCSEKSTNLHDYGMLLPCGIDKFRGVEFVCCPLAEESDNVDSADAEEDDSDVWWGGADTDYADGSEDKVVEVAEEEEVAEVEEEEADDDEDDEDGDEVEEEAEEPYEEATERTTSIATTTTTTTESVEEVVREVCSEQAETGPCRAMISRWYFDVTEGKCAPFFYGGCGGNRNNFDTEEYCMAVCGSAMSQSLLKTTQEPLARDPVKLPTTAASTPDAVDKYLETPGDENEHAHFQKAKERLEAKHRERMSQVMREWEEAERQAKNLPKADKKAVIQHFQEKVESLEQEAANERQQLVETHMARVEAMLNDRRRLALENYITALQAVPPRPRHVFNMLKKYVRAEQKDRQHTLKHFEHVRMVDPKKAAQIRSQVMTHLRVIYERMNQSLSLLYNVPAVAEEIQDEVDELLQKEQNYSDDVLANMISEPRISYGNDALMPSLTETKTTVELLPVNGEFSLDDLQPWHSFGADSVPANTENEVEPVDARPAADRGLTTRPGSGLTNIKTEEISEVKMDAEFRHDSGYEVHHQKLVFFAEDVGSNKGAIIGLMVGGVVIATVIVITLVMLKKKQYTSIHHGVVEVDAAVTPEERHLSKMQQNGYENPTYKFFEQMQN

Row | Structure (SMILES) | pIC50 [1] | inhibition [2] [%] | pIC50 [3] | also measured
1 | O=c1cc(/C=C/c2cc(O)cc(O)c2)occ1O | 4.75 | 56.9 | 5.92 | 
2 | O=c1cc(/C=C/c2ccc(O)cc2)occ1O | 5.14 | 68.5 | 5.71 | inhibition [4]: Active; inhibition [5]: Active; inhibition [6]: inactive; Activity [7]: 19%; inhibition [8]: inactive; Activity [9]: Active; Activity [10]: Active; Activity [11]: Active; Activity [12]: 14%; Activity [13]: 68%; Activity [14]: Active
3 | Cc1c(C)c2c(c(C)c1O)CCC(C)(C(=O)O)O2 (stereo unspecified) [TROLOX] |  |  | 5.41 | 
4 | O=c1cc(/C=C/c2ccc(Cl)cc2)occ1O |  | 18 | 5.71 | 
5 | Oc1ccc(/C=C/c2cc(O)cc(O)c2)cc1 [RESVERATROL] |  |  | 6.12 | inhibition [4]: Active; inhibition [5]: Active; Activity [9]: Active; Activity [10]: Active; Activity [11]: Active; Activity [12]: 58%
6 | COc1cc(/C=C/c2cc(=O)c(O)co2)cc(OC)c1 |  | 18.6 | 5.75 | 
7 | O=c1cc(/C=C/c2cccc(F)c2)occ1O | 4.75 | 58 | 5.46 | 
8 | CCOc1ccc(/C=C/c2cc(=O)c(O)co2)cc1 |  | 38.2 | 5.38 | 
9 | COc1ccccc1/C=C/c1cc(=O)c(O)co1 | 5.10 | 61.1 | 5.46 | 
10 | CN(C)c1ccc(/C=C/c2cc(=O)c(O)co2)cc1 | 5.23 | 61.2 | 5.52 | 
11 | O=c1cc(/C=C/c2ccccc2)occ1O |  | 42.5 | 5.65 | 
12 | O=c1cc(/C=C/c2ccc([N+](=O)[O-])cc2)occ1O |  |  | 5.77 | 
13 | O=c1cc(/C=C/c2ccccc2O)occ1O | 5.08 | 63.6 | 5.93 | inhibition [4]: Active; inhibition [5]: Active; inhibition [6]: inactive; Activity [7]: 16%; inhibition [8]: inactive; Activity [9]: Active; Activity [10]: Active; Activity [11]: Active; Activity [12]: 17%; Activity [13]: 62%
